Experimental data from patent publication US8188078B2 (Sanofi-Aventis, priority 2007, dated 2012).
Counter-ions that a name gives are not always drawn.

How the values were obtained:
RON = RON (Homo sapiens, UniProt Q04912); assay: Test B: HTRF RON test in 96-well format; format: biochemical
Protocol: B) HTRF RON Test in 96-Well Format
The inhibitory potency (IC50) of molecules on the enzymatic activity of kinase phosphorylation RON is determined by the HTRF technique. The activity of the kinase is evaluated by measuring the phosphorylation of the substrate polyGAT by the enzyme, in the presence of ATP.
Final RON 5 nM is incubated in the presence of the molecule to be tested (for a final concentration range from 0.17 nM to 10 μM, final DMSO 3%) in buffer MOPS 10 mM pH 7, DTT 1 mM, Tween 20 0.01%. This pre-incubation is performed in 96 half-well black plates in a volume of 35 μl for 30 minutes at room temperature.
The reaction is initiated by adding 15 μl of a mixture of substrates constituted of biotinylated poly-(GAT) 1 μg/ml final and ATP 10 μM final in the presence of MgCl2 5 mM final for a final volume of 50 μl.
After incubation for 30 min at room temperature, the reaction is stopped with 30 μl of a mixture of Hepes 100 mM final pH 7, potassium fluoride 400 mM final, BSA 0.1% and EDTA 133 mM in the presence of 80 ng per well of antibodies Streptavidin ITS-XL665 Cis-Bio Int. and 18 ng per well of anti-phosphotyrosine PT66 labelled with europium cryptate.
After incubation for 2 hours at room temperature, reading is carried out at 2 wavelengths 620 nm and 665 nm in a Genios TECAN reader for the TRACE/HTRF technique and the percentage inhibition is calculated according to the 665/620 ratios.

c-MET = molecular target: T1, c-MET (Homo sapiens, UniProt P08581); assay: Test A: HTRF Met test in 96-well format; format: biochemical
T1 construct: The recombinant DNA His-Tev-MET (956-1390) in pFastBac(Invitrogen); His (N, cleaved yes); Tev (TEV protease site) (N, cleaved yes); made in house; host or cells: SF21 insect cells (baculovirus, pFastBac)
T1 sequence (P08581 956-1390): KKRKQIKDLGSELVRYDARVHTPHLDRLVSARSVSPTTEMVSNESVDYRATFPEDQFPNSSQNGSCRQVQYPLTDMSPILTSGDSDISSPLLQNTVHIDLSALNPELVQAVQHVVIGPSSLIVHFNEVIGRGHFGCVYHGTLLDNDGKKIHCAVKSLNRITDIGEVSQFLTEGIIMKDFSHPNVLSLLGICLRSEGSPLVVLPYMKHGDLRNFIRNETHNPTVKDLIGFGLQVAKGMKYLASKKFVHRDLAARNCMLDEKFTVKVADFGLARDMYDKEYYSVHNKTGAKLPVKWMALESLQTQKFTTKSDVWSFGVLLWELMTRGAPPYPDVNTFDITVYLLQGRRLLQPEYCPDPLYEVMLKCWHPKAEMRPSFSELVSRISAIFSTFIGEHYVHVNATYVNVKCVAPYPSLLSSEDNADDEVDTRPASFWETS
In short: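 Percent inhibition was calculated from the HTRF 665/620 ratio, using Eu-cryptate anti-phosphotyrosine PT66 plus streptavidin-XL added with EDTA and read after 2 h. The reaction ran 10 min at room temperature: 5 nM tag-cleaved MET (956–1390), 10 µM ATP, 1 µg/ml poly-GAT, and compound from 0.17 nM to 10 µM in 3% DMSO.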

Chain of RON (Q04912 25-1400): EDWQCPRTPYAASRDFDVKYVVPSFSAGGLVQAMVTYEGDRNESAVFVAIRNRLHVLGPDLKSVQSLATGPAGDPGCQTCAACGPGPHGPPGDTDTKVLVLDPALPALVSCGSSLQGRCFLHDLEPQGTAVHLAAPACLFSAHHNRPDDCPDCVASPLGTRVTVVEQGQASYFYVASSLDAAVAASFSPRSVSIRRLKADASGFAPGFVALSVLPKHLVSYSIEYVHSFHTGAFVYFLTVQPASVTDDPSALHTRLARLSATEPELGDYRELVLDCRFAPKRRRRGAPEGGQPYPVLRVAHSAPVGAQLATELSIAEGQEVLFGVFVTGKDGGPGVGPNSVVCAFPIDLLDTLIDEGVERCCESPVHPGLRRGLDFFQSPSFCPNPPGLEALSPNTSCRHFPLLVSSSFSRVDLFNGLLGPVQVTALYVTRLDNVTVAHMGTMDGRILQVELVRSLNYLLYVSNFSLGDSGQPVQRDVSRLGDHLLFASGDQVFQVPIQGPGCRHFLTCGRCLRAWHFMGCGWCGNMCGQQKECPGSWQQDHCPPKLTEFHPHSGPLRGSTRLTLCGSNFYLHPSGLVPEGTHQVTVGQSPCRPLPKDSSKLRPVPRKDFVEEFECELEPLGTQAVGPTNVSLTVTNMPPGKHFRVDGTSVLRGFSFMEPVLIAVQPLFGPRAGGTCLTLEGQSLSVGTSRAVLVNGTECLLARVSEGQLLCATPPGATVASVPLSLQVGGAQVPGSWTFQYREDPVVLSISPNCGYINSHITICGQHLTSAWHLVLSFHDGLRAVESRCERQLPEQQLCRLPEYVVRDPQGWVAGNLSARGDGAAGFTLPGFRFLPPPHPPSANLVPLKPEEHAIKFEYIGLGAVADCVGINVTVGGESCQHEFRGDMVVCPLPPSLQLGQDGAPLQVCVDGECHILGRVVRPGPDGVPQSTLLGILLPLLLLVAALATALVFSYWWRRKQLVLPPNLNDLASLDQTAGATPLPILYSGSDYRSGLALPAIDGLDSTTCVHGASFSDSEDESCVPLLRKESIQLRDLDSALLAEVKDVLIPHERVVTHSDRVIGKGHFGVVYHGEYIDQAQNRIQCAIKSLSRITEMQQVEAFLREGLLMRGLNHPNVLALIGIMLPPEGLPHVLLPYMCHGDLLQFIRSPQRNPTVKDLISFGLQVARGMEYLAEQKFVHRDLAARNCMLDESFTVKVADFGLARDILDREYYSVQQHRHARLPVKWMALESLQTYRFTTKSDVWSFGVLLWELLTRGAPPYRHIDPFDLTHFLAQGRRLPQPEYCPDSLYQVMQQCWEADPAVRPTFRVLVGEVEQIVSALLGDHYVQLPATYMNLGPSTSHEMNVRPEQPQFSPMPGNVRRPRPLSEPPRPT

Row | SMILES | IC50 (RON) [nM] | IC50 (c-MET) [nM]
1 | CC(Oc1ccc2nc(NC(=O)NCCC3CCNCC3)sc2c1)c1c(Cl)ccc(F)c1Cl (stereo not shown) [Example 39, 1-{6-[1-(2,6-Dichloro-3-fluorophenyl)ethoxy]-1,3-benzothiazol-2-yl}-3-(2-piperidin-4-ylethyl)urea trifluoroacetate] | < 500 | < 100
2 | CC(Oc1ccc2nc(NC(=O)NCCCN3CCC(Cc4ccccc4)CC3)sc2c1)c1c(Cl)ccc(F)c1Cl (stereo not shown) [Example 41, 1-[3-(4-benzylpiperidin-1-yl)propyl]-3-{6-[1-(2,6-dichloro-3-fluorophenyl)ethoxy]-1,3-benzothiazol-2-yl}urea] | 500 to 10000 | < 100
3 | C[C@@H](Oc1cc2sc(NC(=O)NCCN3CCOCC3)nc2cc1F)c1c(Cl)ccc(F)c1Cl (single isomer, unassigned) [Example 32, 1-{6-[(1R)-(2,6-dichloro-3-fluorophenyl)ethoxy]-5-fluoro-1,3-benzothiazol-2-yl}-3-(2-morpholin-4-ylethyl)urea or 1-{6-[(1S)-(2,6-dichloro-3-fluorophenyl)ethoxy]-5-fluoro-1,3-benzothiazol-2-yl}-3-(2-morpholin-4-ylethyl)urea] | < 500 | < 100
4 | CC(Oc1ccc2nc(NC(=O)NCCC3CCCN3C)sc2c1)c1c(Cl)ccc(F)c1Cl (stereo not shown) [Example 53, 1-{6-[1-(2,6-dichloro-3-fluorophenyl)ethoxy]-1,3-benzothiazol-2-yl}-3-[2-(1-methylpyrrolidin-2-yl)ethyl]urea] | < 500 | < 100
5 | CC(Oc1ccc2nc(NC(=O)NCCN3C(C)CCCC3C)sc2c1)c1c(Cl)ccc(F)c1Cl (stereo not shown) [Example 56, 1-{6-[1-(2,6-dichloro-3-fluorophenyl)ethoxy]-1,3-benzothiazol-2-yl}-3-[2-(2,6-dimethylpiperidin-1-yl)ethyl]urea] | 500 to 10000 | < 100
6 | CC(Oc1ccc2nc(NC(=O)NCCCN3CCCC3=O)sc2c1)c1c(Cl)ccc(F)c1Cl (stereo not shown) [Example 45, 1-{6-[1-(2,6-dichloro-3-fluorophenyl)ethoxy]-1,3-benzothiazol-2-yl}-3-[3-(2-oxopyrrolidin-1-yl)propyl]urea] | 500 to 10000 | < 100
7 | CC(Oc1ccc2nc(NC(=O)NCCN3CCN(Cc4ccccc4)CC3)sc2c1)c1c(Cl)ccc(F)c1Cl (stereo not shown) [Example 35, 1-[2-(4-benzylpiperazin-1-yl)ethyl]-3-{6-[1-(2,6-dichloro-3-fluorophenyl)ethoxy]-1,3-benzothiazol-2-yl}urea] | 500 to 10000 | < 100
8 | CC(Oc1ccc2nc(NC(=O)OCCN3CCOCC3)sc2c1)c1c(Cl)ccc(F)c1Cl (stereo not shown) [Example 74] | 500 to 10000 | < 100
9 | CC(Oc1ccc2nc(NC(=O)NCCN3CCNCC3)sc2c1)c1c(Cl)ccc(F)c1Cl.O=C(O)C(F)(F)F (stereo not shown) [Example 37, 1-{6-[1-(2,6-Dichloro-3-fluorophenyl)ethoxy]-1,3-benzothiazol-2-yl}-3-(2-piperazin-1-ylethyl)urea trifluoroacetate] | < 500 | 100 to 10000
10 | CC(Oc1ccc2nc(NC(=O)NCCN3CCN(C(=O)OC(C)(C)C)CC3)sc2c1)c1c(Cl)ccc(F)c1Cl (stereo not shown) [Example 36, 1,1-dimethylethyl 4-{2-[({6-[1-(2,6-dichloro-3-fluorophenyl)ethoxy]-1,3-benzothiazol-2-yl}carbamoyl)amino]ethyl}piperazine-1-carboxylate] | 500 to 10000 | < 100
11 | CC(Oc1ccc2nc(NC(=O)NCCN3CCCC3)sc2c1)c1c(Cl)ccc(F)c1Cl (stereo not shown) [Example 51, 1-{6-[1-(2,6-dichloro-3-fluorophenyl)ethoxy]-1,3-benzothiazol-2-yl}-3-(2-pyrrolidin-1-ylethyl)urea] | 500 to 10000 | < 100
12 | CC(Oc1ccc2nc(NC(=O)NCCN3CCOCC3)sc2c1)c1c(Cl)ccc(F)c1Cl (single isomer, unassigned) [Example 25, 1-{6-[(1R*)-(2,6-dichloro-3-fluorophenyl)ethoxy]-1,3-benzothiazol-2-yl}-3-(2-morpholin-4-ylethyl)urea] | < 500 | < 100
13 | CC(Oc1ccc2nc(NC(=O)NCCCN3C(C)CCCC3C)sc2c1)c1c(Cl)ccc(F)c1Cl (stereo not shown) [Example 47, 1-{6-[1-(2,6-dichloro-3-fluorophenyl)ethoxy]-1,3-benzothiazol-2-yl}-3-[3-(2,6-dimethylpiperidin-1-yl)propyl]urea] | 500 to 10000 | < 100

Next, values leading:

Row | IC50 (RON) [nM] | IC50 (c-MET) [nM] | SMILES
14 | 500 to 10000 | < 100 | CNCCCNC(=O)Nc1nc2cc(F)c(OC(C)c3c(Cl)ccc(F)c3Cl)cc2s1 (stereo not shown) [Example 127, 1-{6-[1-(2,6-dichloro-3-fluorophenyl)ethoxy]-5-fluoro-1,3-benzothiazol-2-yl}-3-[3-(methylamino)propyl]urea]
15 | < 500 | < 100 | CCN1CCN(CCNC(=O)Nc2nc3cc(F)c(OC(C)c4c(Cl)ccc(F)c4Cl)cc3s2)CC1 (stereo not shown) [Example 100, 1-{6-[1-(2,6-dichloro-3-fluorophenyl)ethoxy]-5-fluoro-1,3-benzothiazol-2-yl}-3-[2-(4-ethylpiperazin-1-yl)ethyl]urea]
16 | < 500 | < 100 | CC(Oc1cc2sc(NC(=O)NCCN3CCN(C)CC3)nc2cc1F)c1c(F)ccc(Cl)c1Cl (stereo not shown) [Example 115, 1-{6-[1-(2,3-dichloro-6-fluorophenyl)ethoxy]-5-fluoro-1,3-benzothiazol-2-yl}-3-[2-(4-methylpiperazin-1-yl)ethyl]urea]
17 | 500 to 10000 | < 100 | CC(Oc1ccc2nc(NC(=O)NCCN3CCOCC3)sc2c1)c1c(Cl)ccc(Cl)c1Cl (stereo not shown) [Example 124, 1-[2-(morpholin-4-yl)ethyl]-3-{6-[1-(2,3,6-trichlorophenyl)ethoxy]-1,3-benzothiazol-2-yl}urea]
18 | 500 to 10000 | < 100 | CC(Oc1ccc2nc(NC(=O)NCc3ccncc3)sc2c1)c1c(Cl)ccc(F)c1Cl (stereo not shown) [Example 57, 1-{6-[1-(2,6-dichloro-3-fluorophenyl)ethoxy]-1,3-benzothiazol-2-yl}-3-(pyridin-4-ylmethyl)urea]
19 | < 500 | < 100 | CC(Oc1ccc2nc(NC(=O)NCCN3CCN(C)CC3)sc2c1)c1c(F)ccc(Cl)c1Cl (single isomer, unassigned) [Example 109, 1-{6-[(1R*)-1-(2,3-dichloro-6-fluorophenyl)ethoxy]-1,3-benzothiazol-2-yl}-3-[2-(4-methylpiperazin-1-yl)ethyl]urea]
20 | 500 to 10000 | < 100 | CC(Oc1cc2sc(NC(=O)NCCN3CCOCC3)nc2cc1F)c1c(F)ccc(Cl)c1Cl (single isomer, unassigned) [Example 113, 1-{6-[(1S*)-1-(2,3-dichloro-6-fluorophenyl)ethoxy]-5-fluoro-1,3-benzothiazol-2-yl}-3-[2-(morpholin-4-yl)ethyl]urea]
21 | 500 to 10000 | < 100 | CC(Oc1ccc2nc(NC(=O)CCCN3CCOCC3)sc2c1)c1c(Cl)ccc(F)c1Cl (stereo not shown) [Example 65, N-{6-[1-(2,6-dichloro-3-fluorophenyl)ethoxy]-1,3-benzothiazol-2-yl}-4-(morpholin-4-yl)butanamide]
22 | < 500 | < 100 | CC(Oc1ccc2nc(NC(=O)NCCN3CCN(C)CC3)sc2c1)c1c(F)ccc(Cl)c1Cl (stereo not shown) [Example 108, 1-{6-[1-(2,3-dichloro-6-fluorophenyl)ethoxy]-1,3-benzothiazol-2-yl}-3-[2-(4-methylpiperazin-1-yl)ethyl]urea]
23 | < 500 | < 100 | CC(Oc1ccc2nc(NC(=O)NCCN3CCCC3)sc2c1)c1c(F)ccc(Cl)c1Cl (stereo not shown) [Example 120, 1-{6-[1-(2,3-dichloro-6-fluorophenyl)ethoxy]-1,3-benzothiazol-2-yl}-3-[2-(pyrrolidin-1-yl)ethyl]urea]
24 | 500 to 10000 | < 100 | CC(Oc1ccc2nc(NC(=O)NCc3ccccn3)sc2c1)c1c(Cl)ccc(F)c1Cl (stereo not shown) [Example 58, 1-{6-[1-(2,6-dichloro-3-fluorophenyl)ethoxy]-1,3-benzothiazol-2-yl}-3-(pyridin-2-ylmethyl)urea]
25 | 500 to 10000 | < 100 | CC(Oc1cc2sc(NC(=O)NCCN3CCCC3)nc2cc1F)c1c(F)ccc(Cl)c1Cl (single isomer, unassigned) [Example 119, 1-{6-[(1R*)-1-(2,3-dichloro-6-fluorophenyl)ethoxy]-5-fluoro-1,3-benzothiazol-2-yl}-3-[2-(pyrrolidin-1-yl)ethyl]urea]
26 | < 500 | < 100 | CC(Oc1ccc2nc(NC(=O)NCCN3CCCC3)sc2c1)c1c(F)ccc(Cl)c1Cl (single isomer, unassigned) [Example 121, 1-{6-[(1R*)-(2,3-dichloro-6-fluorophenyl)ethoxy]-1,3-benzothiazol-2-yl}-3-[2-(pyrrolidin-1-yl)ethyl]urea]
